US20250359549A1, “PESTICIDE BACTERICIDAL COMPOSITION, WATER DISPERSIBLE GRANULE AND PREPARATION METHOD AND USE THEREOF” (QINGDAO RAINBOW CHEMICAL CO., LTD., priority 2023, published 2025)
Read-outs that look alike come from different tables or passages of the source.

Legend:
plasmopara viticola = test: Indoor toxicity measurement, leaf disk method; type: in vivo; conditions: grape downy mildew; for EC50: Plasmopara viticola, foliar, read-out: Measured EC50 value (X2)
Protocol: After the pesticide solution was naturally dried in air, each treated leaf disc with an upward back was placed in a culture dish, and absorbent paper moistened with the same pesticide solution was placed at the bottom of the culture dish. 15 leaf discs were placed in a concentric circle for each dish, with 4 repetitions for 1 dish treated. Blank control was treated with a 0.1% Tween-80 aqueous solution. Inoculation was performed after 24 h of pesticide treatment. […] The spore sac suspension was cultured with an artificial climate chamber. […] The severity of the disease was determined according to the percentage of the diseased area on the leaf disc to the leaf disc area, the number of diseased leaf discs and the severity of the disease were recorded, and the disease index and prevention and control effect were calculated according to the formula. […] The toxicity regression curve equation y=a+bx and the correlation coefficient r were obtained, and the EC50 of each single agent and different proportions of mixtures was calculated based on the regression equation. Based on the EC50 values of each single agent and compounded agent, the synergistic coefficients (SR) of each compounded agent were calculated according to Wadley method, and the compounding effect was evaluated by using SR value. […] In equations (1) and (2), SR is the synergistic coefficient of the mixture; X1 is the theoretical EC50 value of the mixture, unit: milligrams per liter (mg/L); X2 is the measured EC50 value of the mixture, unit: milligrams per liter (mg/L). […] X1′ is the theoretical value of the mixture, unit: milligrams per liter (mg/L); X2 is the measured value of the mixture, unit: milligrams per liter (mg/L). […] Similarly, the synergistic coefficients SRs of chlorothalonil and picoxystrobin (A+C)+tebuconazole (B) (referred to as (A+C)+B), tebuconazole and picoxystrobin (B+C)+chlorothalonil (A) (referred to as (B+C)+A) can be calculated.

[1] = 20° C., cited from earlier work
[2] = cited from earlier work
[3] = 25° C.; cited from earlier work

SMILES: CC(C)(C)C(O)(CCc1ccc(Cl)cc1)Cn1cncn1 (racemic) [Tebuconazole]
- EC50 (plasmopara viticola): 3.29 µg/mL
- solubility in an organic solvent ([1]; dichloromethane): > 200 mg/mL
- solubility in an organic solvent ([1]; hexane): < 0.1 mg/mL

SMILES: N#Cc1c(Cl)c(Cl)c(Cl)c(C#N)c1Cl [Chlorothalonil]
- Hydrolysis ([2]; pH>9): slowly hydrolyzed
- Stability ([2]; storage at room temperature, weak alkaline and acidic aqueous solutions, UV radiation): stably stored at room temperature, and stable to weak alkaline and acidic aqueous solutions and UV radiation
- distribution coefficient log P [3]: 2.92
- EC50 (plasmopara viticola): 24.6 µg/mL

SMILES: CO/C=C(/C(=O)OC)c1ccccc1COc1cccc(C(F)(F)F)n1 [Picoxystrobin]
- Measured EC50 value (X2) (plasmopara viticola): 2.48 µg/mL
